Molecular target: Full-length inactive AKT1 (Homo sapiens, UniProt P31749)
Assay: Inactive Akt Alpha Screen Assay
Type: biochemical
Details: values not marked with "*": AlphaScreen assay; read-out: Akt1 IC50, (AlphaScreen)
Method: AKT1 activity was assayed using the GSK3-derived biotinylated peptide substrate, crosstide (biotin-[…]), and AlphaScreen™ (Amplified Luminescent Proximity Homogeneous Assay) technology. AKT1 activation was achieved by the addition of the activating kinases PDK1 and MAPKAPK2, lipid vesicles, and ATP. The extent of peptide phosphorylation was determined using a phospho-AKT substrate antibody and acceptor beads conjugated to Protein A and donor beads conjugated to streptavidin that bind to the biotin on the peptide. Excitation of the donor beads converted ambient oxygen to excited singlet oxygen which, when in close proximity to acceptor beads, reacted with acceptor beads resulting in signal amplification.
Assay plates were incubated for 90 minutes at room temperature in the dark, and the plates were read on a Perkin Elmer Envision Multilabel plate reader (excitation wavelength: […], emission wavelength: 570 nm).

Full-length inactive AKT1, sequence (P31749 whole entry): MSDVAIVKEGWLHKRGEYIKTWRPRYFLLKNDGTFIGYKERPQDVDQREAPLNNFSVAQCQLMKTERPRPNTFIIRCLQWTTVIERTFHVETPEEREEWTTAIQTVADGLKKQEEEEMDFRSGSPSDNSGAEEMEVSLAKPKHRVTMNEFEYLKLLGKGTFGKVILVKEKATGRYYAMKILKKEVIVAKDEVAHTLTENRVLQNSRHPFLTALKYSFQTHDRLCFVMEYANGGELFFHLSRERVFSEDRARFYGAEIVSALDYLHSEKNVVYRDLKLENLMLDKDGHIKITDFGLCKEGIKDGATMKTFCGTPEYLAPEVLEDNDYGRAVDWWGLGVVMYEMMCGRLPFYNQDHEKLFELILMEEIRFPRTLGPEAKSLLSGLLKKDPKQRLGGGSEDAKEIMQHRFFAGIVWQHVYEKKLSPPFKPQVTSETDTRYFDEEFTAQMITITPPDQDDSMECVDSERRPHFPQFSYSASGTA

| IC50 | Structure (SMILES) |
| --- | --- |
| 260 nM | COc1cccc(S(=O)(=O)NCc2ccc(-n3c(-c4cccnc4N)nc4cc(Br)cnc43)cc2)c1 [Example 149, N-{4-[2-(2-aminopyridin-3-yl)-6-bromo-3H-imidazo[4,5-b]pyridin-3-yl]benzyl}-3-methoxybenzenesulfonamide] |
| 2300 nM | Nc1ncccc1-c1nc2cc(Br)cnc2n1-c1ccc(CNS(=O)(=O)c2ccc(F)c(Cl)c2)cc1 [Example 150, N-{4-[2-(2-aminopyridin-3-yl)-6-bromo-3H-imidazo[4,5-b]pyridin-3-yl]benzyl}-3-chloro-4-fluorobenzenesulfonamide] |
| 340 nM | Nc1ncccc1-c1nc2cc(Br)cnc2n1-c1ccc(CNS(=O)(=O)C2CCCCC2)cc1 [Example 151, N-{4-[2-(2-aminopyridin-3-yl)-6-bromo-3H-imidazo[4,5-b]pyridin-3-yl]benzyl}cyclohexanesulfonamide] |
| 240 nM | CC(C)CS(=O)(=O)NCc1ccc(-n2c(-c3cccnc3N)nc3cc(Br)cnc32)cc1 [Example 152, N-{4-[2-(2-aminopyridin-3-yl)-6-bromo-3H-imidazo[4,5-b]pyridin-3-yl]benzyl}-2-methylpropane-1-sulfonamide] |
| 440 nM | CCCCS(=O)(=O)NCc1ccc(-n2c(-c3cccnc3N)nc3cc(Br)cnc32)cc1 [Example 153, N-{4-[2-(2-aminopyridin-3-yl)-6-bromo-3H-imidazo[4,5-b]pyridin-3-yl]benzyl}butane-1-sulfonamide] |
| 1200 nM | Cc1noc(C)c1S(=O)(=O)NCc1ccc(-n2c(-c3cccnc3N)nc3cc(Br)cnc32)cc1 [Example 154, N-{4-[2-(2-aminopyridin-3-yl)-6-bromo-3H-imidazo[4,5-b]pyridin-3-yl]benzyl}-3,5-dimethylisoxazole-4-sulfonamide] |
| 140 nM | Nc1ncccc1-c1nc2cc(Br)cnc2n1-c1ccc(CNS(=O)(=O)c2cccs2)cc1 [Example 155, N-{4-[2-(2-aminopyridin-3-yl)-6-bromo-3H-imidazo[4,5-b]pyridin-3-yl]benzyl}thiophene-2-sulfonamide] |
| 1200 nM | Nc1ncccc1-c1nc2cc(Br)cnc2n1-c1ccc(CNS(=O)(=O)c2cccc(Cl)c2)cc1 [Example 156, N-{4-[2-(2-aminopyridin-3-yl)-6-bromo-3H-imidazo[4,5-b]pyridin-3-yl]benzyl}-3-chlorobenzenesulfonamide] |

Same assay, conditions: values not marked with "*"; read-out: Akt1 IC50, (AlphaScreen)

| IC50 | Structure (SMILES) |
| --- | --- |
| 490 nM | Nc1ncccc1-c1nc2cc(Br)cnc2n1-c1ccc(CNS(=O)(=O)c2ccc(F)cc2)cc1 [Example 158, N-{4-[2-(2-aminopyridin-3-yl)-6-bromo-3H-imidazo[4,5-b]pyridin-3-yl]benzyl}-4-fluorobenzenesulfonamide] |
| 200 nM | Nc1ncccc1-c1nc2cc(Br)cnc2n1-c1ccc(CNS(=O)(=O)c2c(F)cccc2F)cc1 [Example 159, N-{4-[2-(2-aminopyridin-3-yl)-6-bromo-3H-imidazo[4,5-b]pyridin-3-yl]benzyl}-2,6-difluorobenzenesulfonamide] |
| 330 nM | Nc1ncccc1-c1nc2cc(Br)cnc2n1-c1ccc(CNS(=O)(=O)c2cccc(F)c2)cc1 [Example 160, N-{4-[2-(2-aminopyridin-3-yl)-6-bromo-3H-imidazo[4,5-b]pyridin-3-yl]benzyl}-3-fluorobenzenesulfonamide] |
| 290 nM | Nc1ncccc1-c1nc2cc(Br)cnc2n1-c1ccc(CNS(=O)(=O)c2ccc3c(c2)CCO3)cc1 [Example 161, N-{4-[2-(2-aminopyridin-3-yl)-6-bromo-3H-imidazo[4,5-b]pyridin-3-yl]benzyl}-2,3-dihydro-1-benzofuran-5-sulfonamide] |
| 450 nM | Cc1ccc(S(=O)(=O)NCc2ccc(-n3c(-c4cccnc4N)nc4cc(Br)cnc43)cc2)cc1 [Example 162, N-{4-[2-(2-aminopyridin-3-yl)-6-bromo-3H-imidazo[4,5-b]pyridin-3-yl]benzyl}-4-methylbenzenesulfonamide] |
| 400 nM | Cc1cccc(S(=O)(=O)NCc2ccc(-n3c(-c4cccnc4N)nc4cc(Br)cnc43)cc2)c1 [Example 163, N-{4-[2-(2-aminopyridin-3-yl)-6-bromo-3H-imidazo[4,5-b]pyridin-3-yl]benzyl}-3-methylbenzenesulfonamide] |
| 620 nM | Nc1ncccc1-c1nc2cc(Br)cnc2n1-c1ccc(CNS(=O)(=O)c2cccc3cccnc23)cc1 [Example 164, N-{4-[2-(2-aminopyridin-3-yl)-6-bromo-3H-imidazo[4,5-b]pyridin-3-yl]benzyl}quinoline-8-sulfonamide] |
| 2100 nM | N#Cc1ccc(S(=O)(=O)NCc2ccc(-n3c(-c4cccnc4N)nc4cc(Br)cnc43)cc2)cc1 [Example 165, N-{4-[2-(2-aminopyridin-3-yl)-6-bromo-3H-imidazo[4,5-b]pyridin-3-yl]benzyl}-4-cyanobenzenesulfonamide] |
| 440 nM | Cn1cnc(S(=O)(=O)NCc2ccc(-n3c(-c4cccnc4N)nc4cc(Br)cnc43)cc2)c1 [Example 166, N-{4-[2-(2-aminopyridin-3-yl)-6-bromo-3H-imidazo[4,5-b]pyridin-3-yl]benzyl}-1-methyl-1H-imidazole-4-sulfonamide] |
| 480 nM | Cc1ccc(C)c(S(=O)(=O)NCc2ccc(-n3c(-c4cccnc4N)nc4cc(Br)cnc43)cc2)c1 [Example 167, N-{4-[2-(2-aminopyridin-3-yl)-6-bromo-3H-imidazo[4,5-b]pyridin-3-yl]benzyl}-2,5-dimethylbenzenesulfonamide] |
| 170 nM | Nc1ncccc1-c1nc2cc(Br)cnc2n1-c1ccc(CNS(=O)(=O)C2CC2)cc1 [Example 168, N-{4-[2-(2-aminopyridin-3-yl)-6-bromo-3H-imidazo[4,5-b]pyridin-3-yl]benzyl}cyclopropanesulfonamide] |
| 190 nM | Nc1ncccc1-c1nc2cc(Br)cnc2n1-c1ccc(CNS(=O)(=O)c2ccsc2)cc1 [Example 169, N-{4-[2-(2-aminopyridin-3-yl)-6-bromo-3H-imidazo[4,5-b]pyridin-3-yl]benzyl}thiophene-3-sulfonamide] |
| 490 nM | CCS(=O)(=O)NCc1ccc(-n2c(-c3cccnc3N)nc3cc(Br)cnc32)cc1 [Example 170, N-{4-[2-(2-aminopyridin-3-yl)-6-bromo-3H-imidazo[4,5-b]pyridin-3-yl]benzyl}ethanesulfonamide] |
| 350 nM | Nc1ncccc1-c1nc2cc(Br)cnc2n1-c1ccc(CNS(=O)(=O)c2ccccc2F)cc1 [Example 171, N-{4-[2-(2-aminopyridin-3-yl)-6-bromo-3H-imidazo[4,5-b]pyridin-3-yl]benzyl}-2-fluorobenzenesulfonamide] |
| 99 nM | CC(C)(C)c1ccc(C(=O)NCc2ccc(-n3c(-c4cccnc4N)nc4cccnc43)cc2)cc1 [Example 172, N-{4-[2-(2-aminopyridin-3-yl)-3H-imidazo[4,5-b]pyridin-3-yl]benzyl}-4-tert-butylbenzamide] |
| 26 nM | Nc1ncccc1-c1nc2cc(-c3ccc(CO)cc3)cnc2n1-c1ccc(CNC(=O)c2ccccc2)cc1 [Example 173, N-(4-{2-(2-aminopyridin-3-yl)-6-[4-(hydroxymethyl)phenyl]-3H-imidazo[4,5-b]pyridin-3-yl}benzyl)benzamide] |
| 38 nM | CC(=O)Nc1cccc(-c2cnc3c(c2)nc(-c2cccnc2N)n3-c2ccc(CNC(=O)c3ccccc3)cc2)c1 [Example 174, N-(4-{6-[3-(acetylamino)phenyl]-2-(2-aminopyridin-3-yl)-3H-imidazo[4,5-b]pyridin-3-yl}benzyl)benzamide] |

From patent US8501770B2 (ArQule, Inc., priority 2009, dated 2013)
